Patent US20200375965A1, “Targeting Lipid Metabolism and Free Fatty Acid (FFA) Oxidation to Treat Diseases Mediated by Resident Memory T Cells (TRM)” (The Brigham and Women's Hospital, Inc., priority 2018, published 2020)

Assays:
VACV = tested on: VACV; design: species or system mice; conditions: mouse, in vivo
WR-VACV = tested on: WR-VACV; design: species or system mice; conditions: mouse, in vivo
[1] = tested on: TRM mediated contact hypersensitivity (CHS); assay: DNFB contact hypersensitivity (CHS), ear thickness; type: in vivo, C57BL/6 mice; conditions: etomoxir 1 ug/site, trimetazidine 10 ug/site at challenge with 0.25% DNFB
Method: FIG. 15. […] Effect of FAO inhibition on contact hypersensitivity (CHS) reaction post DNFB re-exposure. DNFB: 20 ul, 0.25% in acetone:olive oil (aOO) (3:1 v/v); Etomoxir (1 ug/site); Trimetazidine (10 ug/site). N=10 mice per group.
C57BL/6 mice were sensitized by topical applications of 20 μl of 0.25% DNFB diluted in acetone olive oil (3:1 v/v) at the indicated time points (day 0, 1 and 7). Challenge was performed at the infection site with 20 μl of DNFB-acetone olive oil (aOO) (0.25%), with or without etomoxir (1 ug/site) and trimetazidine (10 ug/site), at the indicated time points. Then the ear thickness of the mice was measured with a digital thickness gauge (Mitsutoyo) for the following days.

[2] = tested on: OT-I TRM, TCM and Fabp4/5 dKO TRM; assay: Seahorse Fatty Acid Oxidation (FAO) assay, oxygen-consumption rate; type: cell-based, mouse
Method: Oxidation of exogenous free fatty acids (FFA) was measured using XF Palmitate-BSA FAO substrate with XF cell mito stress kit according to the manufacturer's protocol (Seahorse Bioscience). Freshly isolated and sorted T cells (2.5×10^5) were incubated for 30 min with FAO assay medium (111 mM NaCl, 4.7 mM KCl, 1.25 mM CaCl2), 2.0 mM MgSO4, 1.2 mM Na2HPO4, 2.5 mM glucose, 0.5 mM carnitine and 5 mM HEPES). When required, cells were pre-treated with etomoxir (40 μM) for 15 min. Afterwards, BSA (34 μM) or palmitate-BSA (200 μM palmitate conjugated with 34 μM BSA) was added to the medium, and the oxygen-consumption rate (OCR) was measured under basal conditions and in response to 1 uM oligomycin, 1.5 uM fluorocarbonyl cyanide phenylhydrazone (FCCP), and 100 nM rotenone+1 uM antimycin A. Results were normalized to those of control cells in the presence of BSA.

OT-1 skin TRM = assay: Bodipy FL C16 (Bodipy conjugated palmitate) uptake ex vivo, flow cytometry; type: cell-based, mouse; conditions: pre-incubation with unlabeled palmitate (100 μM palmitic acid, 10 min, 37° C.); day 30 TRM
Description: The following anti-mouse antibodies were obtained from BD PharMingen: PerCP-conjugated anti-CD3e (553067), PE-conjugated anti-CD8 (557654), PE-Cy7-conjugated anti-CD8 (552877), APC-Cy7-conjugated anti-CD8 (557654), PE-conjugated anti-Thy1.1 (561404), APC-conjugated anti-Thy1.1 (557266), Alexa Fluor 488-conjugated anti-KLRG1 (561619), PE-conjugated anti-integrin α4β7 (553811), PE-Cy7-conjugated anti-CD62L (560516), APC-Cy7-conjugated CD62L (560514), APC-conjugated anti-IFN-γ (554413). Biolegend: Alexa Fluor 488-conjugated anti-CD3e (100321), Alexa Fluor 647-conjugated anti-CD4 (100424), Alexa Fluor 594-conjugated anti-Ep-CAM (118222), FITC-conjugated anti-CD45.1 (110706), PE-conjugated anti-CD45.1 (110708), PE-Cy7-conjugated anti-CD45.2 (109830), APC-conjugated anti-CD45.2 (109814), PE-conjugated anti-CD45.2 (109808), APC-conjugated anti-KLRG1 (138412), PE-conjugated anti-CD44 (103008), PE-Cy7-conjugated anti-CD44 (103030), PE-Cy7-conjugated anti-CD69 (104512), APC-conjugated anti-CD103 (121414), APC-conjugated anti-integrin α4β7 (120608). […] Apoptosis was measured with FITC Annexin V Apoptosis Detection Kit (640922; Biolegend) according to manufacturer's protocol. Flow cytometry data were acquired with a FACS Canto II flow cytometer (BD Biosciences) and data were analyzed with Flowjo software (Tree Star). […]

Question: Which “clearing of virus from skin by established OT-I WT TRM” value (VACV; ip, 1 mg/kg) does the source give for `CCCCCCCCc1ccc(CCC(N)(CO)CO)cc1` [FTY720] here?
Answer: unaffected

Question: What about the “reduced viral clearance by OT-I TRM lacking Fabp4 and Fabp5” value (VACV; ip, 1 mg/kg) of the same molecule?
Answer: exaggerated

Question: What about the mortality (WR-VACV) of the same molecule?
Answer: 100%

Question: What about the protection from lethality (WR-VACV) of the same molecule?
Answer: partially but significantly protected

Question: What does the source list for `CCOC(=O)C1(CCCCCCOc2ccc(Cl)cc2)CO1` (stereo not shown) [etomoxir, 2-(6-(4-chlorophenoxy)-hexyl)-oxirane-2-carboxylic acid ethyl ester]?
Answer: contact hypersensitivity (CHS) reaction post DNFB re-exposure [1]: Block; VACV clearing capacity of OT-I WT TRM (VACV): reduced; enhanced basal and FCCP-stimulated maximal oxygen-consumption rate (OCR) induced by extracellular fatty acids ([2]; OT-I TRM, pre-treatment with etomoxir 40 μM for 15 min): blocked; cellular respiration (OCR) ([2]; TCM or Fabp4/5 dKO TRM OT-I cells, addition of etomoxir): no effect

Question: Which “contact hypersensitivity (CHS) reaction post DNFB re-exposure” value [1] does the source give for `COc1ccc(CN2CCNCC2)c(OC)c1OC` [trimetazidine] here?
Answer: Block

Question: Which “uptake of extracellular Bodipy conjugated palmitate” value (OT-1 skin TRM) does the source give for `CCCCCCCCCCCCCCCC(=O)O` [unlabeled palmitate, palmitic acid] here?
Answer: blocked
